Assay results taken from US20240287080A1 (IDEAYA Biosciences Inc., priority 2021, published 2024).

target: T1, Pol theta (1-899) (Homo sapiens, UniProt O75417); test: Pol theta ATPase activity, NADH oxidation-coupled enzymatic assay (ATPase NADH coupling: Standard Screening: hPolQ); format: biochemical; details: Pol theta (1-899) 5 nM, NADH oxidation-coupled ATPase assay; compounds of Table 3
T1 construct: Pol theta (1-899) (5 nM) in assay buffer
How it was run: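 Rates of ATP hydrolysis taken from 60-min A340 traces of NADH oxidation via PK/LDH coupling, then fit four-parameter for IC50, Hill slope and max inhibition. Enzyme (5 nM, 1-899) and compounds preincubated 15 min before ATP 100 μM and 50-thymine ssDNA 300 nM (stock, equal volume added).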

T1 sequence (O75417 1-899): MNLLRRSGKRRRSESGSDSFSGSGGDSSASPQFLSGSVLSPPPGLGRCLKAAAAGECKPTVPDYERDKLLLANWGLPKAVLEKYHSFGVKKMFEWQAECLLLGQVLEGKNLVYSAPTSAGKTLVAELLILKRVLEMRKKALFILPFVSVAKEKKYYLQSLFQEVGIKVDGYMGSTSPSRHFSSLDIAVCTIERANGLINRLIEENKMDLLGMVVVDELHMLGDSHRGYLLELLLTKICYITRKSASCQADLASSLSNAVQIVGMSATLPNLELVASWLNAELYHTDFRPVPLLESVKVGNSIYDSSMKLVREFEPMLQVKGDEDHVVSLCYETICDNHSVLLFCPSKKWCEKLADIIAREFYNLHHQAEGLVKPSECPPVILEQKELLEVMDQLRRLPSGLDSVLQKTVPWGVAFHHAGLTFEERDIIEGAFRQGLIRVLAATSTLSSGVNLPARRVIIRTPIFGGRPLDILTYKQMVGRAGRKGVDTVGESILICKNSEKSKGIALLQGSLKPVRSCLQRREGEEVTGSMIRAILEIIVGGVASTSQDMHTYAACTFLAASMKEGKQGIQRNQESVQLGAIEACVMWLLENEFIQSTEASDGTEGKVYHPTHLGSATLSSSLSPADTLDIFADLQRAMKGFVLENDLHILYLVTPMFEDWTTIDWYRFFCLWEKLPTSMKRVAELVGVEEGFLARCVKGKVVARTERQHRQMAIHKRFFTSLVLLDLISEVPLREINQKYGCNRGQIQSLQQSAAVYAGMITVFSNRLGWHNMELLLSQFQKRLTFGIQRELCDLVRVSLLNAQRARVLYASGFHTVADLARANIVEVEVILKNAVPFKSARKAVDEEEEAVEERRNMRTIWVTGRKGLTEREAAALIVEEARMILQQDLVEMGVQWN

Row | IC50 [nM] | Structure (SMILES)
1 | ≤ 200 | COc1cnc(C)c(F)c1-c1cc(C)ncc1C(=O)Nc1nnc(O[C@@H]2C[C@@H]3C[C@H]2C[C@H]3O)s1 (single isomer, unassigned) [Example 254]
2 | 1000 to 10000 | COc1nnc(NC(=O)c2cnc(C)cc2-c2cncc(C#N)c2)s1 [Example 334, 5-cyano-N-(5-methoxy-1,3,4-thiadiazol-2-yl)-6′-methyl-[3,4′-bipyridine]-3′-carboxamide]
3 | 1000 to 10000 | CNS(=O)(=O)c1ccc(-c2cc(C)ncc2C(=O)Nc2nnc(OC)s2)cc1 [Example 384, N-(5-methoxy-1,3,4-thiadiazol-2-yl)-6-methyl-4-[4-(methylsulfamoyl)phenyl]pyridine-3-carboxamide]
4 | 1000 to 10000 | COc1nnc(NC(=O)c2cnc(C)cc2-c2cc(C)nn2C)s1 [Example 420, 4-(1,3-dimethyl-1H-pyrazol-5-yl)-N-(5-methoxy-1,3,4-thiadiazol-2-yl)-6-methylpyridine-3-carboxamide]
5 | ≤ 200 | COc1cnc(Cl)cc1-c1cc(C)ncc1C(=O)Nc1nnc(O[C@@H]2C[C@H](F)CN(C3COC3)C2)s1 (single isomer, unassigned) [Example 260]
6 | 1000 to 10000 | COc1nnc(NC(=O)c2cnc(C)cc2-c2ccc3ccn(C)c3c2)s1 [Example 480, N-(5-methoxy-1,3,4-thiadiazol-2-yl)-6-methyl-4-(1-methyl-1H-indol-6-yl)pyridine-3-carboxamide]
7 | 1000 to 10000 | COc1nnc(NC(=O)c2cnc(C)cc2-c2ccc(P(C)(C)=O)cc2OC)s1 [Example 303, 4-(4-(dimethylphosphoryl)-2-methoxyphenyl)-N-(5-methoxy-1,3,4-thiadiazol-2-yl)-6-methylnicotinamide]
8 | 1000 to 10000 | COc1nnc(NC(=O)c2cnc(C)cc2-c2ccccc2C#N)s1 [Example 454, 4-(2-cyanophenyl)-N-(5-methoxy-1,3,4-thiadiazol-2-yl)-6-methylpyridine-3-carboxamide]
9 | 1000 to 10000 | COc1nnc(NC(=O)c2cnc(C)cc2-c2cccc(CN(C)C)c2)s1 [Example 410, 4-(3-((dimethylamino)methyl)phenyl)-N-(5-methoxy-1,3,4-thiadiazol-2-yl)-6 methylnicotinamide]
10 | 1000 to 10000 | COc1nnc(NC(=O)c2cnc(C)cc2-c2cccc(CC(N)=O)c2)s1 [Example 472, 4-[3-(carbamoylmethyl)phenyl]-N-(5-methoxy-1,3,4-thiadiazol-2-yl)-6-methylpyridine-3-carboxamide]
11 | 1000 to 10000 | COc1nnc(NC(=O)c2cnc(C)cc2-c2cccnc2C)s1 [Example 461, N-(5-methoxy-1,3,4-thiadiazol-2-yl)-2,6′-dimethyl-[3,4′-bipyridine]-3′-carboxamide]
12 | 1000 to 10000 | COc1nnc(NC(=O)c2cnc(C)cc2-c2cnn(-c3ccccc3)c2C)s1 [Example 456, N-(5-methoxy-1,3,4-thiadiazol-2-yl)-6-methyl-4-(5-methyl-1-phenyl-1H-pyrazol-4-yl)pyridine-3-carboxamide]
13 | ≤ 200 | COc1nnc(NC(=O)c2cnc(C)cc2-c2cccc3ccccc23)s1 [Example 398, N-(5-methoxy-1,3,4-thiadiazol-2-yl)-6-methyl-4-(naphthalen-1-yl)pyridine-3-carboxamide]
14 | 1000 to 10000 | COc1nnc(NC(=O)c2cnc(C)cc2-c2ccc(C(N)=O)cc2)s1 [Example 353, 4-(4-carbamoylphenyl)-N-(5-methoxy-1,3,4-thiadiazol-2-yl)-6-methylpyridine-3-carboxamide]
15 | 1000 to 10000 | COc1nnc(NC(=O)c2cnc(C)cc2-c2cnc3[nH]ccc3c2)s1 [Example 399, N-(5-methoxy-1,3,4-thiadiazol-2-yl)-6-methyl-4-{1H-pyrrolo[2,3-b]pyridin-5-yl}pyridine-3-carboxamide]
16 | 500 to 1000 | COc1nnc(NC(=O)c2cnc(C)cc2-c2cccc(C)c2)s1 [Example 361, N-(5-methoxy-1,3,4-thiadiazol-2-yl)-6-methyl-4-(3-methylphenyl) pyridine-3-carboxamide]
17 | 1000 to 10000 | COc1nnc(NC(=O)c2cnc(C)cc2-c2ccc(NS(C)(=O)=O)cc2)s1 [Example 387, 4-(4-methanesulfonamidophenyl)-N-(5-methoxy-1,3,4-thiadiazol-2-yl)-6-methylpyridine-3-carboxamide]
18 | ≤ 200 | COc1nnc(NC(=O)c2cc(OC)c(C)cc2-c2cc(Cl)ncc2OC)s1 [Example 301, 2-(2-chloro-5-methoxypyridin-4-yl)-5-methoxy-N-(5-methoxy-1,3,4-thiadiazol-2-yl)-4-methylbenzamide]
19 | 1000 to 10000 | COc1nnc(NC(=O)c2cnc(C)cc2-c2ccc3c(c2)COC3=O)s1 [Example 416, N-(5-methoxy-1,3,4-thiadiazol-2-yl)-6-methyl-4-(1-oxo-1,3-dihydro-2-benzofuran-5-yl)pyridine-3-carboxamide]

same assay, conditions: Table 4; Pol theta (1-899) 5 nM, ATP, dT50 ssDNA

Row | IC50 [nM] | Structure (SMILES)
20 | ≤ 200 | COc1nnc(NC(=O)c2cnc(C)cc2-c2cc(Br)ncc2OC)s1 [Example 63, 2′-bromo-5′-methoxy-N-(5-methoxy-1,3,4-thiadiazol-2-yl)-6-methyl-(4,4′-bipyridine)-3-carboxamide]
21 | ≤ 200 | COc1cnc(Cl)cc1-c1cc(C)ncc1C(=O)Nc1nnc(OC2(C)COC2)s1 [Example 24, 2′-chloro-5′-methoxy-6-methyl-N-(5-((3-methyloxetan-3-yl)oxy)-1,3,4-thiadiazol-2-yl)-(4,4′-bipyridine)-3-carboxamide]
22 | ≤ 200 | COc1cnc(Cl)cc1-c1cc(C)ncc1C(=O)Nc1nnc(O[C@H]2CC[C@@H](O)C2)s1 (single isomer, unassigned) [Example 58]
23 | ≤ 200 | COc1cnc(Cl)cc1-c1cc(C)ncc1C(=O)Nc1nnc(OC2CCCC2)s1 [Example 17, 2′-chloro-N-(5-(cyclopentyloxy)-1,3,4-thiadiazol-2-yl)-5′-methoxy-6-methyl-(4,4′-bipyridine)-3-carboxamide]
24 | ≤ 200 | CCc1cc(-c2cc(C)ncc2C(=O)Nc2nnc(OC)s2)c(OC)cn1 [Example 44, 2′-ethyl-5′-methoxy-N-(5-methoxy-1,3,4-thiadiazol-2-yl)-6-methyl-(4,4′-bipyridine)-3-carboxamide]
25 | 1000 to 10000 | COc1nnc(NC(=O)c2cnc(C)cc2-c2c(C)n[nH]c2C)s1 [Example 40, 4-(3,5-dimethyl-1H-pyrazol-4-yl)-N-(5-methoxy-1,3,4-thiadiazol-2-yl)-6-methylnicotinamide]
26 | ≤ 200 | COc1cnc(Cl)cc1-c1cc(C)ncc1C(=O)Nc1nnc(O[C@H]2CC[C@@H](O)CC2)s1 (single isomer, unassigned) [Example 26, 2′-chloro-N-(5-(((1s,4s)-4-hydroxycyclohexyl)oxy)-1,3,4-thiadiazol-2-yl)-5′-methoxy-6-methyl-[4,4′-bipyridine]-3-carboxamide]
27 | 200 to 500 | CCOc1ccc(Cl)cc1-c1cc(C)ncc1C(=O)Nc1nnc(OC)s1 [Example 53, 4-(5-chloro-2-ethoxyphenyl)-N-(5-methoxy-1,3,4-thiadiazol-2-yl)-6-methylnicotinamide]
28 | 200 to 500 | CCOc1cnc(Cl)cc1-c1cc(C)ncc1C(=O)Nc1nnc(OC)s1 [Example 42, 2′-chloro-5′-ethoxy-N-(5-methoxy-1,3,4-thiadiazol-2-yl)-6-methyl-(4,4′-bipyridine)-3-carboxamide]

same assay, conditions: Table 5; Pol theta (1-899) 5 nM, ATP, dT50 ssDNA

Row | IC50 [nM] | Structure (SMILES)
29 | ≤ 200 | COc1cnc(Cl)cc1-c1cc(C)ncc1C(=O)Nc1nnc(O[C@@H]2CC[C@H]2O)s1 (single isomer, unassigned) [Example 114]
30 | ≤ 200 | COc1cnc(Cl)c(F)c1-c1cc(C)ncc1C(=O)Nc1nnc(O[C@H]2COC3(CC3)C2)s1 (single isomer, unassigned) [Example 210]
31 | 200 to 500 | COc1cnc(Cl)cc1-c1cc(C)ncc1C(=O)Nc1nnc(O[C@]2(C)CCOC2)s1 (single isomer, unassigned) [Example 139]
32 | ≤ 200 | COc1cnc(Cl)c(F)c1-c1cc(C)ncc1C(=O)Nc1nnc(O[C@H]2CCO[C@@H]2C)s1 (single isomer, unassigned) [Example 165]
33 | ≤ 200 | COc1nnc(NC(=O)c2cn3c(C)ncc3cc2-c2cc(Cl)ncc2OC)s1 [Example 103, 7-(2-chloro-5-methoxypyridin-4-yl)-N-(5-methoxy-1,3,4-thiadiazol-2-yl)-3-methylimidazo(1,5-a)pyridine-6-carboxamide]
34 | ≤ 200 | COc1cnc(Cl)cc1-c1cc(C)ncc1C(=O)Nc1nnc(OC2CCCC2OC)s1 (stereo not drawn) [Example 163, 2′-chloro-5′-methoxy-N-(5-((2-methoxycyclopentyl)oxy)-1,3,4-thiadiazol-2-yl)-6-methyl-(4,4′-bipyridine)-3-carboxamide]
35 | 1000 to 10000 | COc1nnc(NC(=O)c2cnc(C)cc2-c2ccncc2OC)s1 [Example 101, 3′-methoxy-N-(5-methoxy-1,3,4-thiadiazol-2-yl)-6-methyl-(4,4′-bipyridine)-3-carboxamide]
36 | ≤ 200 | COc1cnc(Cl)cc1-c1cc(C)ncc1C(=O)Nc1nnc(O[C@H]2CC[C@@H](CO)CC2)s1 [Example 169, 2′-chloro-N-(5-(((1s,4s)-4-(hydroxymethyl)cyclohexyl)oxy)-1,3,4-thiadiazol-2-yl)-5′-methoxy-6-methyl-(4,4′-bipyridine)-3-carboxamide]
37 | ≤ 200 | Cc1cc(-c2cc(Cl)ncc2OC(F)F)c(C(=O)Nc2nnc(O[C@H]3COC4(CC4)C3)s2)cn1 (single isomer, unassigned) [Example 233]
38 | ≤ 200 | COc1cnc(Cl)cc1-c1cc(C)ncc1C(=O)Nc1nnc(O[C@@H]2CCC[C@@](C)(O)C2)s1 (single isomer, unassigned) [Example 182]

Row | Structure (SMILES) | IC50 [nM]
39 | COc1cnc(Cl)c(F)c1-c1cc(C)ncc1C(=O)Nc1nnc(O[C@H]2C[C@@H](O)C2)s1 [Example 129, 2′-chloro-3′-fluoro-N-(5-((1s,3s)-3-hydroxycyclobutoxy)-1,3,4-thiadiazol-2-yl)-5′-methoxy-6-methyl-(4,4′-bipyridine)-3-carboxamide] | ≤ 200
